The results in this text go back to BindingDB's records for doi:10.1021/jm051064t (P. Angeletti S.P.A. (Merck Research Laboratories), 2006).

This experiment in a line: Inhibition of replication of HCV 1b BK RNA in Huh7 cells.

One may read the EC50 as the concentration that produces a half-maximal response. The low end stands for greater potency, the high end for weaker potency.

Compound `O=C(NCc1ccccc1Cl)Nc1ccsc1-c1nc(C(=O)O)c(O)c(=O)[nH]1` [2-(3-(3-(2-chlorobenzyl)ureido)thiophen-2-yl)-5,6-dihydroxypyrimidine-4-carboxylic acid] showed an EC50 of 3.1 µM. That is a single-digit micromolar value.
